The subject of series [1] is HBV DNA replication in HepG2.2.15 cells. As to the kind of experiment: In vitro anti-HBV activity test (quantitative assay of intracellular HBV DNA), HepG2.2.15 cells, quantitative PCR. To be noted: Hepatitis B virus, HBV DNA by quantitative PCR; for EC50: compound treatment Day 2 to Day 8; for Emax: read-out: Emax (effect value of the compound to maximally inhibit HBV DNA replication). Type of series: cell-based, hepatitis B virus (HBV). The procedure: In vitro anti-HBV activity test of the compound of the present invention (quantitative assay of intracellular HBV DNA)
HepG2.2.15 cell is a stable expression cell line that has integrated HBV genome.
Virus particles containing HBV DNA can be synthesized by replication, transcription and encapsidation in the cells, and then secreted. In this study, the quantitative analysis of HBV DNA produced by HepG2.2.15 in vitro proliferation was carried out by quantitative PCR method, thereby determining the activity of the compound of the present invention on inhibiting the HBV DNA replication by inhibiting the assembly of HBV capsid protein.
HepG2.2.15 cells were cultured in DMEM/high glucose medium (10% FBS, […] G418) and passaged every three days. On the day of the experiment, a cell suspension was prepared with fresh cell culture medium, and incubated in a 96-well plate (Corning, #3599) at 40,000 cells/well, at 5% carbon dioxide, 37° C. On Day 2, the compound was dissolved in pure DMSO at a concentration of 20 mM, and then the first concentration of 2 mM was formulated with DMSO, and diluted in 4-fold concentration gradient to 8 concentrations. A control well was added with 90 μl of DMSO. The compound solution was diluted 200-fold with DMEM/high glucose medium. The cell culture plate inoculated on Day 1 was taken out. The medium in the wells was removed by a negative pressure suction device, and the formulated medium containing the compound at each concentration was added respectively to each well at 200 μl/well. The plate was incubated at 37° C. for 72 hours. On Day 5, the medium of the cultured cells was replaced with fresh medium containing the same compound in the same way as Day 2, and then the plate was incubated at 37° C. for 72 hours. On Day 8, the cell culture plate was taken out, centrifuged at 300 g for 3 minutes, and the culture supernatant was collected at 200 μl/well. HBV DNA was extracted from the cell culture supernatant with Qiagen automatic DNA extraction device, and the specific method referred to the instructions of the reagents and instruments. Finally, the extracted DNA was eluted with DNA elution buffer at 100 μl/well. The extracted DNA was subjected to quantitative PCR analysis of HBV DNA using Hepatitis B virus nucleic acid quantitative detection kit (Triplex International Biosciences Co., Ltd.), and the specific method referred to the instruction of the kit. The quantitative standard curve was obtained with the standard sample provided in the kit, and the experiments were performed in parallel. Quantitative conversion of each sample was carried out according to the standard curve. Finally, the EC50 value of the compound was calculated with Graphpad Prism software according to each concentration of the compound and the corresponding DNA value.
The in vitro activity of the compound of the present invention on inhibiting the HBV DNA replication by inhibiting the assembly of HBV capsid protein was determined by the above experiment.

Series [2] can be described thus: Effect on in vitro proliferation of HepG2 cells (CellTiter-Glo). The format is cell-based. The settings on record: human; HepG2 cells, 72 hours, CellTiter-Glo. As to the method:
Test Example 2. Effect of the Compound of the Present Invention on In Vitro Proliferation of HepG2 Cells
HepG2 cells in logarithmic growth phase were taken and digested with trypsin to prepare a cell suspension, which was incubated in a 96-well plate (transparent bottom white 96-well plate, PerkinElmer) at 6,000 cells/well, at 5% carbon dioxide, 37° C. for 16-20 hours. On Day 2, the compound was dissolved in pure DMSO at a concentration of 20 mM. The compound was diluted in 3-fold concentration gradient using an automatic pipetting station (Bravo), 8 concentration points for each compound, and the control well was DMSO. The compound formulated in DMSO at each concentration point was diluted 200-fold with EMEM (containing 10% FBS) medium. The cell culture plate inoculated on Day 1 was taken out. The medium in the wells was removed by a negative pressure suction device, and the formulated medium containing the compound at each concentration was added respectively to each well at 100 μl/well. The plate was incubated at 37° C. for 72 hours. On Day 5, the 96-well cell culture plate was taken out, and freshly formulated CellTiter Glo was added to each well at 100 μl/well. The 96-well plate was left to stand for 5-10 minutes, the bottom was then sealed with a white bottom sealing film (PerkinElmer). The plate was placed in the microplate reader to measure the luminescence signal. The CC50 value of the compound was calculated with Graphpad Prism software according to each concentration of the compound and the corresponding proliferation inhibition signal value.
The inhibition effect of the compound of the present invention on in vitro proliferation of HepG2 cells was determined by the above experiment.

Series [3] can be described thus: Pharmacokinetics assay in rats after intragastrical administration (LC/MS/MS of plasma). To be noted: both sexes, rat, plasma, po, SD rats, 2 mg/kg; for Vd/F: read-out: Apparent distribution volume Vz/F; for AUC: read-out: Area under curve AUC; for bioavailability: read-out: Bioavailability (%) F %; for CL/F: read-out: Clearance CLz/F; for half-life: read-out: Half-life T1/2 (converted); for Cmax: read-out: Plasma concentration Cmax; for MRT: read-out: Residence time MRT. Type of series: in vivo. The procedure: Pharmacokinetics assay of the compound of the present invention
Rats were used as test animals. The drug concentration in plasma at different time points was determined by LC/MS/MS method after intragastrical administration of the compound of Example 1, the compound of Example 2, the compound of Example 4, the compound of Example 6, the compound of Example 7, the compound of Example 11, the compound of Example 39, the compound of Example 42, the compound of Example 44, the compound of Example 45 and the compound of Example 47 to rats. The pharmacokinetic behavior and property of the compound of the present invention were studied and evaluated in rats.
44 Healthy adult SD rats (half male and half female, 4 rats/group) were purchased from Shanghai Jiesijie Laboratory Animal Co., LTD, with Certificate No.: SCXK (Shanghai) 2013-0006.
A certain amount of the test compound was weighed, and added with 5% by volume of DMSO, 5% by volume of tween 80 and 90% by volume of normal saline to prepare a 0.2 mg/mL colorless, clear and transparent solution.
After an overnight fast, SD rats were administrated intragastrically with the test compound at an administration dose of 2.0 mg/kg and an administration volume of 10.0 mL/kg.
The rats were intragastrically administrated the compound of Example 1, the compound of Example 2, the compound of Example 4, the compound of Example 6, the compound of Example 7, the compound of Example 11, the compound of Example 39, the compound of Example 42, the compound of Example 44, the compound of Example 45 and the compound of Example 47. 0.1 ml of blood was taken from the orbit before administration and at 0.5, 1.0, 2.0, 4.0, 6.0, 8.0, 11.0 and 24.0 hours after administration. The samples were stored in heparinized tubes, and centrifuged for 10 minutes at 3500 rpm to separate the blood plasma. The plasma samples were stored at −20° C. The rats were fed two hours after administration.
The content of the test compound in the plasma of rats after intragastrical administration of the test compound at different concentrations was determined: 25 μL of rat plasma at each time after administration was taken, added with 40 μL of the internal standard solution of camptothecin (100 ng/mL) and 200 μL of acetonitrile, vortex-mixed for 5 minutes, and centrifuged for 10 minutes (4000 rpm). 0.2 μL of the supernatant was taken from the plasma samples for LC/MS/MS analysis.

From US11247998B2, “Piperazine heteroaryl derivative, preparation method therefor and use of same in medicine” (priority 2017, dated 2022) come the findings set out here.

The term EC50 denotes the midpoint of the concentration-response curve. High values mean a less potent agent, low ones a more potent agent. By Emax is commonly meant the size of the effect at its maximum, as opposed to the concentration needed. The term CC50 denotes the concentration that lowers cell viability or growth by half. A lower CC50 goes with harm at low concentration. The AUC is concentration integrated over time. The MRT is a mean duration of stay, worked out from the concentration-time curve. As to `C[C@@H](NC(=O)c1cnn2c1CN(C(=O)Nc1ccc(F)c(F)c1)CC2)C(F)(F)F` [Example 2, (R)—N^5-(3,4-Difluorophenyl)-N^3-(1,1,1-trifluoropropan-2-yl)-6,7-dihydropyrazolo[1,5-α]pyrazine-3,5(4H)-dicarboxamide], in series [1], it took 30 nM to reach a half-maximal effect (EC50) and the Emax was 100%. Also, the half-maximal cytotoxic concentration (CC50) at 72 h in series [2] was over 100000 nM. For the same compound, in series [3], the Vd/F was 2.58 ± 0.638 L/kg, the exposure (AUC) was 9250 ± 3310 ng·h/mL, the bioavailability stood at 107% and the CL/F is 4 ± 1.48 mL/min/kg. Also, in series [3], the half-life is 8.01 ± 2.26 h, the Cmax is 661 ± 200 ng/mL and the mean residence time (MRT) is 11.5 ± 2.8 h.

Take `C[C@@H](NC(=O)c1cnn2c1CN(C(=O)Nc1cc(F)c(F)c(F)c1)CC2)C(F)(F)F` [Example 4, (R)—N^5-(3,4,5-Trifluorophenyl)-N^3-(1,1,1-trifluoropropan-2-yl)-6,7-dihydropyrazolo[1,5-α]pyrazine-3,5(4H)-dicarboxamide]: in series [1], the EC50 stood at 27 nM and the maximal effect (Emax) came to 100%. In addition, the CC50 at 72 h in series [2] is over 100000 nM. Further, in series [3], the Vd/F worked out at 3.69 ± 0.532 L/kg, the AUC amounted to 7130 ± 2640 ng·h/mL, the bioavailability is 120% and the CL/F was 5.08 ± 1.48 mL/min/kg. Further, in series [3], the half-life was 8.8 ± 1.95 h, the Cmax came to 425 ± 100 ng/mL and the mean residence time (MRT) was 13.1 ± 2.5 h.

`C[C@H]1Cn2cnc(C(=O)N[C@H](C)C(F)(F)F)c2CN1C(=O)Nc1ccc(F)c(F)c1` [Example 6, (S)—N^7-(3,4-Difluorophenyl)-6-methyl-N^1-((R)-1,1,1-trifluoropropan-2-yl)-5,6-dihydroimidazo[1,5-α]pyrazine-1,7(8H)-dicarboxamide]: in series [1], it took 4 nM to reach a half-maximal effect (EC50) and the Emax is 100%. For the same compound, the CC50 at 72 h in series [2] is over 100000 nM. In addition, in series [3], the Vd/F is 2.16 ± 0.721 L/kg, the area under the curve (AUC) worked out at 12900 ± 6600 ng·h/mL, the bioavailability was determined as 120% and the CL/F was found to be 3.22 ± 1.66 mL/min/kg. Further, in series [3], the half-life was 10.8 ± 8.1 h, the Cmax was determined as 629 ± 167 ng/mL and the MRT was 16.7 ± 10.1 h.

As to `C[C@H]1Cn2ncc(C(=O)N[C@H](C)C(F)(F)F)c2CN1C(=O)Nc1cc(F)nc(F)c1` [Example 16, (S)—N^5-(2,6-Difluoropyridin-4-yl)-6-methyl-N^3-((R)-1,1,1-trifluoropropan-2-yl)-6,7-dihydropyrazolo[1,5-α]pyrazine-3,5(4H)-dicarboxamide], in series [1], the EC50 stood at 50 nM and the Emax amounted to 100%. This compound also displayed a half-maximal cytotoxic concentration (CC50) at 72 h in series [2] of over 100000 nM.

For `C[C@@H](NC(=O)c1nnn2c1CN(C(=O)Nc1cc(F)c(F)c(F)c1)CC2)C(F)(F)F` [Example 17, (R)—N^5-(3,4,5-Trifluorophenyl)-N^3-(1,1,1-trifluoropropan-2-yl)-6,7-dihydro-[1,2,3]triazolo[1,5-α]pyrazine-3,5(4H)-dicarboxamide], in series [1], the response was half-maximal at 70 nM (EC50) and the Emax stood at 80%. This compound had a CC50 at 72 h in series [2] of over 100000 nM.

`Cc1cc(NC(=O)N2Cc3c(C(=O)N[C@H](C)C(F)(F)F)nnn3C[C@@H]2C)ccc1F` [Example 40, (S)—N^5-(4-Fluoro-3-methylphenyl)-6-methyl-N^3-((R)-1,1,1-trifluoropropan-2-yl)-6,7-dihydro-[1,2,3]triazolo[1,5-α]pyrazine-3,5(4H)-dicarboxamide]: in series [1], the 50% effective concentration (EC50) is 20 nM and the maximal effect (Emax) worked out at 100%. This compound also registered a CC50 at 72 h in series [2] of over 100000 nM.

Take `C[C@H](NC(=O)c1ncn2c1CN(C(=O)Nc1ccc(F)c(F)c1)[C@@H](C)C2)C(F)(F)F` [Example 41, (S)—N^7-(3,4-Difluorophenyl)-6-methyl-N^1—((S)-1,1,1-trifluoropropan-2-yl)-5,6-dihydroimidazo[1,5-α]pyrazine-1,7(8H)-dicarboxamide]: in series [1], the concentration for a half-maximal effect (EC50) was determined as 24 nM and the maximal effect (Emax) was determined as 100%. Moreover, the CC50 at 72 h in series [2] is over 100000 nM.

As to `C[C@H]1Cn2cnc(C(=O)NC3(C)CCC3)c2CN1C(=O)Nc1ccc(F)c(C#N)c1` [Example 46, (S)—N^7-(3-Cyano-4-fluorophenyl)-6-methyl-N^1-(1-methylcyclobutyl)-5,6-dihydroimidazo[1,5-α]pyrazine-1,7(8H)-dicarboxamide], in series [1], the 50% effective concentration (EC50) was determined as 65 nM and the Emax came to 97%. Further, the CC50 at 72 h in series [2] is over 100000 nM.

Regarding `C[C@H]1Cn2cnc(C(=O)NC3(C)CC3)c2CN1C(=O)Nc1ccc(F)c(C#N)c1` [Example 48, (S)—N^7-(3-Cyano-4-fluorophenyl)-6-methyl-N^1-(1-methylcyclopropyl)-5,6-dihydroimidazo[1,5-α]pyrazine-1,7(8H)-dicarboxamide], in series [1], the EC50 worked out at 93 nM and the Emax was determined as 98%. The compound further returned a half-maximal cytotoxic concentration (CC50) at 72 h in series [2] of over 100000 nM.

For the compound `Cc1cc(NC(=O)N2Cc3c(C(=O)N[C@H](C)C(F)(F)F)ncn3C[C@@H]2C)ccc1F` [Example 58, (S)—N^7-(4-Fluoro-3-methylphenyl)-6-methyl-N^1-((R)-1,1,1-trifluoropropan-2-yl)-5,6-dihydroimidazo[1,5-α]pyrazine-1,7(8H)-dicarboxamide], in series [1], the response was half-maximal at 15 nM (EC50) and the Emax is 100%. The CC50 at 72 h in series [2] was over 100000 nM.
